From ChEMBL document CHEMBL1201862, “PubChem BioAssay data set” (2004)
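Step 1: Grow cells in 96-well plates. Step 2: Expose to compound for 48 hours at 5 concentrations. Step 3: Interpolate endpoints linearly; if unreached, use highest concentration. GI50 is the concentration that inhibits growth by half.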 Active and inactive are the calls of the source. Cut-off read from the data, not from the text of the source: active = GI50 up to about 1.1 µM and inactive = higher.

Columns and labels:
Experiment in all cases: NCI anticancer screen, dose series, 48 h
U-251 = tested on: U-251
MDA-MB-231 = tested on: MDA-MB-231
PC-3 = tested on: PC-3
ACHN = tested on: ACHN
SNB-75 = tested on: SNB-75
HCT-15 = tested on: HCT-15
UACC-62 = tested on: UACC-62
SK-OV-3 = tested on: SK-OV-3
EKVX = tested on: EKVX
SF-268 = tested on: SF-268
HOP-62 = tested on: HOP-62
A498 = tested on: A498
MOLT-4 = tested on: MOLT-4
SF-539 = tested on: SF-539
HCT-116 = tested on: HCT-116
IGROV-1 = tested on: IGROV-1
SR = tested on: SR
TK-10 = tested on: TK-10
SK-MEL-28 = tested on: SK-MEL-28
UO-31 = tested on: UO-31
MCF7 = tested on: MCF7
CAKI-1 = tested on: CAKI-1
Hs-578T = tested on: Hs-578T
CCRF-CEM = tested on: CCRF-CEM
UACC-257 = tested on: UACC-257
T47D = tested on: T47D
NCI/ADR-RES = tested on: NCI/ADR-RES
KM12 = tested on: KM12
NCI-H522 = tested on: NCI-H522
DU-145 = tested on: DU-145
HT-29 = tested on: HT-29
HOP-92 = tested on: HOP-92
A549 = tested on: A549
SF-295 = tested on: SF-295
M14 = tested on: M14
NCI-H460 = tested on: NCI-H460
OVCAR-5 = tested on: OVCAR-5
HCC 2998 = tested on: HCC 2998
NCI-H23 = tested on: NCI-H23
OVCAR-4 = tested on: OVCAR-4
SW-620 = tested on: SW-620
OVCAR-3 = tested on: OVCAR-3
LOX IMVI = tested on: LOX IMVI
OVCAR-8 = tested on: OVCAR-8
SK-MEL-5 = tested on: SK-MEL-5
BT-549 = tested on: BT-549
SK-MEL-2 = tested on: SK-MEL-2
786-0 = tested on: 786-0
COLO 205 = tested on: COLO 205
RPMI-8226 = tested on: RPMI-8226
K562 = tested on: K562
MDA-MB-435 = tested on: MDA-MB-435
SN12C = tested on: SN12C
NCI-H226 = tested on: NCI-H226
RXF 393 = tested on: RXF 393
HL-60 = tested on: HL-60
Malme-3M = tested on: Malme-3M
SNB-19 = tested on: SNB-19
MDA-N = tested on: MDA-N

In the case of `c1ccc2c(c1)Sc1ccccc1N2CC1CN2CCC1CC2` (centres undefined) [MEQUITAZINE], the GI50 (U-251) is reported as 4.24 µM (inactive), the GI50 (MDA-MB-231) is reported as 3.8 µM (inactive) and the GI50 (PC-3) is reported as 5.35 µM (inactive). For the same compound, the GI50 (ACHN) was 10.3 µM (inactive), the GI50 (SNB-75) was 1.75 µM (inactive) and the GI50 (HCT-15) was 7.18 µM. For the same compound, the GI50 (UACC-62) was 3.13 µM (inactive), the GI50 (SK-OV-3) was 12.5 µM (inactive) and the GI50 (EKVX) was 11.4 µM (inactive). The GI50 (SF-268) was 7.36 µM (inactive), the GI50 (HOP-62) was 13.4 µM (inactive) and the GI50 (A498) was 11.7 µM (inactive). For the same compound, the GI50 (MOLT-4) was 3.42 µM (inactive), the GI50 (SF-539) was 8.32 µM (inactive) and the GI50 (HCT-116) was 3.52 µM (inactive). For the same compound, the GI50 (IGROV-1) was 11.2 µM (inactive), the GI50 (SR) was 2.58 µM (inactive) and the GI50 (TK-10) was 6.41 µM (inactive). The GI50 (SK-MEL-28) was 2 µM (inactive), the GI50 (UO-31) was 7.06 µM (inactive) and the GI50 (MCF7) was 3.4 µM (inactive). For the same compound, the GI50 (CAKI-1) was 8.26 µM (inactive), the GI50 (Hs-578T) was 8.2 µM (inactive) and the GI50 (CCRF-CEM) was 3.28 µM (inactive). For the same compound, the GI50 (UACC-257) was 1.88 µM (inactive), the GI50 (T47D) was 2.63 µM (inactive) and the GI50 (NCI/ADR-RES) was 11.1 µM (inactive). For the same compound, the GI50 (KM12) was 5.08 µM (inactive), the GI50 (NCI-H522) was 4.82 µM (inactive) and the GI50 (DU-145) was 6.73 µM (inactive). For the same compound, the GI50 (HT-29) was 3.01 µM (inactive), the GI50 (HOP-92) was 11 µM (inactive) and the GI50 (A549) was 9.71 µM (inactive). The GI50 (SF-295) was 15.7 µM (inactive), the GI50 (M14) was 1.87 µM (inactive) and the GI50 (NCI-H460) was 3.26 µM (inactive). The GI50 (OVCAR-5) was 11.7 µM (inactive), the GI50 (HCC 2998) was 1.29 µM (inactive) and the GI50 (NCI-H23) was 13 µM (inactive). The GI50 (OVCAR-4) was 6.5 µM (inactive), the GI50 (SW-620) was 3.58 µM (inactive) and the GI50 (OVCAR-3) was 3.97 µM (inactive). The GI50 (LOX IMVI) was 3.08 µM (inactive), the GI50 (OVCAR-8) was 13.4 µM (inactive) and the GI50 (SK-MEL-5) was 3.2 µM (inactive). For the same compound, the GI50 (BT-549) was 14.5 µM (inactive), the GI50 (SK-MEL-2) was 3.32 µM (inactive) and the GI50 (786-0) was 6.24 µM (inactive). The GI50 (COLO 205) was 1.69 µM (inactive), the GI50 (RPMI-8226) was 2.99 µM (inactive) and the GI50 (K562) was 2.11 µM (inactive). The GI50 (MDA-MB-435) was 2.8 µM (inactive), the GI50 (SN12C) was 11.3 µM (inactive) and the GI50 (NCI-H226) was 14.5 µM (inactive). For the same compound, the GI50 (RXF 393) was 2.31 µM (inactive), the GI50 (HL-60) was 3.57 µM (inactive) and the GI50 (Malme-3M) was 1.94 µM (inactive). For the same compound, the GI50 (SNB-19) was 9.23 µM (inactive).

For `O=C1/C(=C/c2ccco2)N=C(c2ccccc2)N1c1cc2cc(Sc3ccccc3)ccc2[nH]1`, the GI50 (PC-3) was > 25 µM (inactive), the GI50 (ACHN) was > 25 µM (inactive) and the GI50 (SNB-75) was > 25 µM (inactive). For the same compound, the GI50 (HCT-15) was > 25 µM, the GI50 (UACC-62) was 21.8 µM (inactive) and the GI50 (EKVX) was 15.5 µM (inactive). For the same compound, the GI50 (SF-268) was > 25 µM (inactive), the GI50 (A498) was 17 µM (inactive) and the GI50 (MOLT-4) was 22.4 µM (inactive). The GI50 (SF-539) was 17.9 µM (inactive), the GI50 (HCT-116) was > 25 µM (inactive) and the GI50 (IGROV-1) was > 25 µM (inactive). The GI50 (SR) was 5.18 µM (inactive), the GI50 (MDA-N) was 7.21 µM (inactive) and the GI50 (SK-MEL-28) was > 25 µM (inactive). For the same compound, the GI50 (UO-31) was 18.8 µM (inactive), the GI50 (MCF7) was 11 µM (inactive) and the GI50 (CAKI-1) was 9.46 µM (inactive). The GI50 (Hs-578T) was 15.3 µM (inactive), the GI50 (CCRF-CEM) was 2.72 µM (inactive) and the GI50 (T47D) was 15.8 µM (inactive). The GI50 (NCI/ADR-RES) was 10.2 µM (inactive), the GI50 (NCI-H522) was 11.6 µM (inactive) and the GI50 (DU-145) was > 25 µM (inactive). The GI50 (HT-29) was 20 µM (inactive), the GI50 (HOP-92) was 8.24 µM (inactive) and the GI50 (A549) was > 25 µM (inactive). The GI50 (M14) was 21.6 µM (inactive), the GI50 (OVCAR-5) was 21.6 µM (inactive) and the GI50 (NCI-H23) was > 25 µM (inactive). For the same compound, the GI50 (OVCAR-4) was > 25 µM (inactive), the GI50 (SW-620) was 13.1 µM (inactive) and the GI50 (LOX IMVI) was 12.3 µM (inactive). The GI50 (OVCAR-8) was 22.8 µM (inactive), the GI50 (BT-549) was 19.4 µM (inactive) and the GI50 (SK-MEL-2) was 7.53 µM (inactive). For the same compound, the GI50 (786-0) was > 25 µM (inactive), the GI50 (COLO 205) was 8.51 µM (inactive) and the GI50 (RPMI-8226) was 0.457 µM (active). For the same compound, the GI50 (K562) was 7.96 µM (inactive), the GI50 (MDA-MB-435) was 6.55 µM (inactive) and the GI50 (SN12C) was 17.4 µM (inactive). For the same compound, the GI50 (RXF 393) was 13.1 µM (inactive), the GI50 (HL-60) was 0.214 µM (active) and the GI50 (Malme-3M) was > 25 µM (inactive). For the same compound, the GI50 (SNB-19) was > 25 µM (inactive).
